Source: patent US10688197B2, “Non-alcoholic fatty liver regulator 14-3-3 protein” (Korea University Research and Business Foundation, priority 2015, dated 2020)

Key:
[1] = molecular target: T1, PPARγ2 deletion mutant (139-505) (Homo sapiens, UniProt P37231); assay: GST-pull down assay with PPARγ2 deletion mutant (139-505); format: binding; settings: FIG. 3B/3C
T1 construct: Flag-PPARγ2 (139-505) DNA (4 μg); expressed in transfected cells; host or cells: HEK-293T
T1 sequence (P37231 139-505): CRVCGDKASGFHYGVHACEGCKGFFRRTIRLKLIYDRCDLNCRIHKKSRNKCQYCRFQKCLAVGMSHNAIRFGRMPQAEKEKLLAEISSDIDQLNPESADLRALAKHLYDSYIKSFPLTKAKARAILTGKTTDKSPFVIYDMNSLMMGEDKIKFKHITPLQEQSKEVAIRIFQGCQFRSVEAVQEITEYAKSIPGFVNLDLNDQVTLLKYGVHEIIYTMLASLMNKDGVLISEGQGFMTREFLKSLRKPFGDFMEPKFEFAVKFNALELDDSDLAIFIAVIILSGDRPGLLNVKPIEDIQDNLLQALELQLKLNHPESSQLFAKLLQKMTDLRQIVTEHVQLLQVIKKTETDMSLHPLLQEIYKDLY
Method: HEK-293T cells were seeded in a 100 mm plate at a density of 2×10^6 cells per each well, and then transfected with Flag-PPARγ2 (1-505) DNA (4 μg), Flag-PPARγ2 (1-310) DNA (4 μg), Flag-PPARγ2 (139-505) DNA (4 μg), and mGST-14-3-3β (4 μg) or mGST-14-3-3γ (4 μg) using an E-fection plus reagent (Lugen). For Flag-PPARγ2 (1-310) DNA and Flag-PPARγ2 (139-505) DNA, DNA fragments amplified through polymerase chain reaction (PCR) were cloned into a pCMV-3Tag-1 vector using restriction enzymes XhoI and ApaI. A ratio of DNA to the E-fection plus reagent was 1:2, and this method was performed according to a manufacturer's manual. The corresponding cells were washed with ice-cold PBS and lysed using 500 μl/well of a lysis buffer (150 mM NaCl, 1 mM EDTA, 1% Nonidet P-40, 5% glycerol, 25 mM tris-HCl, pH 7.5, protease inhibitor added), and the lysed cells were centrifuged at 10,000×g and 4° C. for 10 minutes to extract proteins. Thereafter, 1,000 μg of the proteins was reacted with 20 μl of glutathione Sepharose 4B beads (GE Healthcare, Buckinghamshire, UK) for 6 hours, and then washing of the beads with 1 ml of ice-cold PBS was repeated 5 times, and the beads were boiled at 100° C. for 10 minutes, followed by 10% SDS-PAGE gel separation and western blotting. A ratio of GST antibodies (Santa Cruz) to Flag antibodies (Santa Cruz) was 1:3000. […]

FAT/CD36 promoter = assay: Chromatin immunoprecipitation (ChIP assay), binding of PPARγ2 to FAT/CD36 promoter in HepG2 cells; format: cell-based; settings: overexpression, FIG. 7C upper side
Method: In addition, for chromatin immunoprecipitation (ChIP), HepG2 cells were seeded in a 100 mm plate at a density of 4×10^6 cells per each well, and then transfected with Flag-PPARγ2 DNA (4 μg), mGST-14-3-3β DNA (4 μg) or mGST-14-3-3γ DNA (4 μg), and si-14-3-3β (20 μM, Santa Cruz) or si-14-3-3γ (20 μM, Santa Cruz) using an E-fection plus reagent (Lugen). A ratio of DNA to the E-fection plus reagent was 1:2, and this method was performed according to a manufacturer's manual. The corresponding cells were treated with 0.75% formaldehyde at room temperature for 15 minutes, glycine was added thereto, and the resulting cells were scraped into ice-cold PBS and centrifuged at 1,000×g and 4° C. for 3 minutes to remove a supernatant, pellets were dissolved with 400 μl of FA lysis buffer (50 mM HEPES, 150 mM NaCl, 2 mM EDTA pH 8.0, 1% Triton-X100, 0.1% NaDeoxycholate), and then lysed using a sonicator twice for 10 minutes at a high voltage under the following condition: lysis for 30 seconds and resting for 30 seconds. […]
In addition, the binding of PPARγ2 and a binding strength thereof according to the expression of 14-3-3β and 14-3-3γ were evaluated by ChIP assay using a PPAR response element (PPRE) known as a binding site of PPARγ2 present in the FAT/CD36 promoter. […]

SREBP-1c protein = SREBP-1c protein expression by western blotting in HepG2 cells; format: cell-based; settings: HepG2, overexpression, 200 μM oleic acid 72 hours, FIG. 7D
Method: In addition, HepG2 cells were seeded in a 6-well plate at a density of 5×10^5 cells per each well, and then transfected with HA-14-3-3β DNA (1 μg) or HA-14-3-3γ DNA (1 μg) using an E-fection plus reagent (Lugen). A ratio of DNA to the E-fection plus reagent was 1:2, and this method was performed according to a manufacturer's manual. After transfection, the cells were treated with 200 μM of oleic acid (OA) for 72 hours, washed with ice-cold PBS, and lysed with 80 μl/well of a lysis buffer (150 mM NaCl, 1 mM EDTA, 1% Nonidet P-40, 5% glycerol, 25 mM tris-HCl, pH 7.5, protease inhibitor added), the lysed cells were centrifuged at 10,000×g and 4° C. for 10 minutes to extract proteins, and 30 μg of the proteins was separated on a 10% SDS-PAGE gel and identified using each of the antibodies (HA, SREBP-1c: Santa Cruz) by western blotting, and all antibodies were used in a ratio of 1:3000.

HepG2 cells = assay: Triglyceride colorimetric assay in HepG2 cells; format: cell-based, human; settings: HepG2, overexpression, 200 μM oleic acid 72 hours, FIG. 10A
Method: HepG2 cells and primary mouse hepatocytes were separately seeded in a 6-well plate at a density of 4×10^5 cells per each well, and then transfected with GFP-14-3-3β DNA (1 μg) or GFP-14-3-3γ DNA (1 μg) and si-14-3-3β (10 μM, Santa Cruz) or si-14-3-3γ (10 μM, Santa Cruz) using an E-fection plus reagent (Lugen). A ratio of DNA to the E-fection plus reagent was 1:2, and this method was performed according to a manufacturer's manual. After transfection, the cells were treated with 200 μM of oleic acid (OA) for 72 hours, and the amount of triglycerides was measured using a triglyceride colorimetric assay kit (Cayman Chemical). The corresponding cells were washed with ice-cold PBS and then scraped using a standard diluent assay reagent, the scrapping process was repeated using a sonicator 20 times to lyse the cells, and the lysed cells were reacted with an enzyme buffer solution for 15 minutes, followed by measurement using an ELISA reader (Bio-Rad Laboratories, Inc) at a wavelength of 550 nm.

| binding to PPARγ2 deletion mutant (139-505) [1] | Substance | binding of PPARγ2 to the FAT/CD36 promoter (FAT/CD36 promoter) | expression of the SREBP-1c protein (SREBP-1c protein) | triglyceride accumulation (HepG2 cells) |
| --- | --- | --- | --- | --- |
| bound | 14-3-3β: 14-3-3 isoform protein overexpressed by DNA transfection; increases the transcriptional activity of PPARγ2 by binding to PPARγ2 | increased | increased | further increased |
| bound | 14-3-3γ: 14-3-3 isoform protein overexpressed by DNA transfection; decreases the transcriptional activity of PPARγ2; proposed active ingredient | inhibited | reduced | reduced |
